From PubChem BioAssay (NCI)
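Grown in 96-well plates, cells were treated for 48 hours with each compound at five concentrations. Insufficient inhibition: endpoint recorded as highest concentration tested. The concentration for full growth arrest is given as TGI.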

These molecules were tested on T-47D breast (assay: DTP human tumour cell line panel, 48 h).
For `COc1nc(C)nc2sc3c(c12)CCCC3`, the TGI was greater than 100 µM.
`C=C(Cl)c1c(OC)cccc1OCc1ccccc1` gave a TGI of 95.7 µM.
`Nc1nc(Cl)c(N)c(NCC2(CO)CCC2)n1` was tested, and the TGI was greater than 100 µM.
In the case of `c1ccc2c(C3CCN(CCN4CCOCC4)C3)c[nH]c2c1` (stereo not given), the TGI is reported as greater than 100 µM.
`COc1ccc(OC)c2sc(N3C(=O)/C(=C/c4ccc(Cl)cc4)N=C3c3ccccc3)nc12` showed a TGI of 78.5 µM.

The molecules below were run on LOX IMVI melanoma (assay: DTP human tumour cell line panel, 48 h).
In the case of `CC(=O)C(=[N+]=[N-])C(=O)NCC#N`, the TGI is reported as greater than 10 µM.
For `O=C(c1ccccc1)c1ccc2nc3n(c2c1)C(c1c(F)cccc1F)SC3` (stereo not given), the TGI was 36.6 µM.
Work on `COc1nc(C)nc2sc3c(c12)CCCC3` yielded a TGI greater than 100 µM.
`C=C(Cl)c1c(OC)cccc1OCc1ccccc1` showed a TGI greater than 100 µM.
Work on `Nc1nc(Cl)c(N)c(NCC2(CO)CCC2)n1` yielded a TGI greater than 100 µM.
Work on `c1ccc2c(C3CCN(CCN4CCOCC4)C3)c[nH]c2c1` (stereo not given) yielded a TGI greater than 100 µM.
Work on `COc1ccc(OC)c2sc(N3C(=O)/C(=C/c4ccc(Cl)cc4)N=C3c3ccccc3)nc12` yielded a TGI greater than 100 µM.

The molecules below were run on OVCAR-5 ovarian (assay: DTP human tumour cell line panel, 48 h).
Work on `CC(=O)C(=[N+]=[N-])C(=O)NCC#N` yielded a TGI greater than 10 µM.
`O=C(c1ccccc1)c1ccc2nc3n(c2c1)C(c1c(F)cccc1F)SC3` (stereo not given) gave a TGI greater than 91.1 µM.
`COc1nc(C)nc2sc3c(c12)CCCC3` showed a TGI greater than 100 µM.
`C=C(Cl)c1c(OC)cccc1OCc1ccccc1` gave a TGI greater than 100 µM.
For `Nc1nc(Cl)c(N)c(NCC2(CO)CCC2)n1`, the TGI was greater than 100 µM.
With `c1ccc2c(C3CCN(CCN4CCOCC4)C3)c[nH]c2c1` (stereo not given) the TGI was greater than 100 µM.
`COc1ccc(OC)c2sc(N3C(=O)/C(=C/c4ccc(Cl)cc4)N=C3c3ccccc3)nc12` gave a TGI greater than 100 µM.

These molecules were tested on MDA-MB-435 (assay: DTP human tumour cell line panel, 48 h).
In the case of `CC(=O)C(=[N+]=[N-])C(=O)NCC#N`, the TGI is reported as greater than 10 µM.
`O=C(c1ccccc1)c1ccc2nc3n(c2c1)C(c1c(F)cccc1F)SC3` (stereo not given) was tested, and the TGI was 3.96 µM.
With `COc1nc(C)nc2sc3c(c12)CCCC3` the TGI was greater than 100 µM.
Molecule `C=C(Cl)c1c(OC)cccc1OCc1ccccc1` has a TGI greater than 100 µM.
`Nc1nc(Cl)c(N)c(NCC2(CO)CCC2)n1` showed a TGI greater than 100 µM.
With `c1ccc2c(C3CCN(CCN4CCOCC4)C3)c[nH]c2c1` (stereo not given) the TGI was greater than 100 µM.
`COc1ccc(OC)c2sc(N3C(=O)/C(=C/c4ccc(Cl)cc4)N=C3c3ccccc3)nc12` gave a TGI greater than 100 µM.

These molecules were tested on HS 578T breast (assay: DTP human tumour cell line panel, 48 h).
In the case of `CC(=O)C(=[N+]=[N-])C(=O)NCC#N`, the TGI is reported as greater than 10 µM.
Work on `O=C(c1ccccc1)c1ccc2nc3n(c2c1)C(c1c(F)cccc1F)SC3` (stereo not given) yielded a TGI greater than 81 µM.
`COc1nc(C)nc2sc3c(c12)CCCC3` was tested, and the TGI was greater than 100 µM.
With `C=C(Cl)c1c(OC)cccc1OCc1ccccc1` the TGI was greater than 100 µM.
`Nc1nc(Cl)c(N)c(NCC2(CO)CCC2)n1` was tested, and the TGI was greater than 100 µM.
Molecule `c1ccc2c(C3CCN(CCN4CCOCC4)C3)c[nH]c2c1` (stereo not given) has a TGI greater than 100 µM.
For `COc1ccc(OC)c2sc(N3C(=O)/C(=C/c4ccc(Cl)cc4)N=C3c3ccccc3)nc12`, the TGI was greater than 100 µM.

The molecules below were run on HCC-2998 colon (assay: DTP human tumour cell line panel, 48 h).
Work on `CC(=O)C(=[N+]=[N-])C(=O)NCC#N` yielded a TGI greater than 10 µM.
`O=C(c1ccccc1)c1ccc2nc3n(c2c1)C(c1c(F)cccc1F)SC3` (stereo not given) was tested, and the TGI was greater than 52.5 µM.
In the case of `COc1nc(C)nc2sc3c(c12)CCCC3`, the TGI is reported as greater than 100 µM.
Work on `C=C(Cl)c1c(OC)cccc1OCc1ccccc1` yielded a TGI greater than 100 µM.
With `Nc1nc(Cl)c(N)c(NCC2(CO)CCC2)n1` the TGI was greater than 100 µM.
`c1ccc2c(C3CCN(CCN4CCOCC4)C3)c[nH]c2c1` (stereo not given) was tested, and the TGI was greater than 100 µM.
`COc1ccc(OC)c2sc(N3C(=O)/C(=C/c4ccc(Cl)cc4)N=C3c3ccccc3)nc12` showed a TGI greater than 100 µM.

Each molecule was assayed on SF-539 CNS (assay: DTP human tumour cell line panel, 48 h).
`CC(=O)C(=[N+]=[N-])C(=O)NCC#N` gave a TGI greater than 10 µM.
Work on `O=C(c1ccccc1)c1ccc2nc3n(c2c1)C(c1c(F)cccc1F)SC3` (stereo not given) yielded a TGI greater than 47.8 µM.
With `C=C(Cl)c1c(OC)cccc1OCc1ccccc1` the TGI was greater than 100 µM.
In the case of `Nc1nc(Cl)c(N)c(NCC2(CO)CCC2)n1`, the TGI is reported as greater than 100 µM.
Molecule `COc1ccc(OC)c2sc(N3C(=O)/C(=C/c4ccc(Cl)cc4)N=C3c3ccccc3)nc12` has a TGI greater than 100 µM.

Each molecule was assayed on IGROV1 ovarian (assay: DTP human tumour cell line panel, 48 h).
`CC(=O)C(=[N+]=[N-])C(=O)NCC#N` was tested, and the TGI was greater than 10 µM.
Work on `O=C(c1ccccc1)c1ccc2nc3n(c2c1)C(c1c(F)cccc1F)SC3` (stereo not given) yielded a TGI greater than 100 µM.
`COc1nc(C)nc2sc3c(c12)CCCC3` was tested, and the TGI was greater than 100 µM.
Molecule `C=C(Cl)c1c(OC)cccc1OCc1ccccc1` has a TGI greater than 100 µM.
For `Nc1nc(Cl)c(N)c(NCC2(CO)CCC2)n1`, the TGI was greater than 100 µM.
`c1ccc2c(C3CCN(CCN4CCOCC4)C3)c[nH]c2c1` (stereo not given) gave a TGI greater than 100 µM.
In the case of `COc1ccc(OC)c2sc(N3C(=O)/C(=C/c4ccc(Cl)cc4)N=C3c3ccccc3)nc12`, the TGI is reported as greater than 100 µM.

The molecules below were run on 786-0 renal (assay: DTP human tumour cell line panel, 48 h).
`CC(=O)C(=[N+]=[N-])C(=O)NCC#N` showed a TGI greater than 10 µM.
Molecule `O=C(c1ccccc1)c1ccc2nc3n(c2c1)C(c1c(F)cccc1F)SC3` (stereo not given) has a TGI of 47.8 µM.
For `COc1nc(C)nc2sc3c(c12)CCCC3`, the TGI was greater than 100 µM.
Work on `C=C(Cl)c1c(OC)cccc1OCc1ccccc1` yielded a TGI greater than 100 µM.
With `Nc1nc(Cl)c(N)c(NCC2(CO)CCC2)n1` the TGI was greater than 100 µM.
For `c1ccc2c(C3CCN(CCN4CCOCC4)C3)c[nH]c2c1` (stereo not given), the TGI was greater than 100 µM.
`COc1ccc(OC)c2sc(N3C(=O)/C(=C/c4ccc(Cl)cc4)N=C3c3ccccc3)nc12` gave a TGI greater than 100 µM.

What follows are molecules tested on M14 melanoma (assay: DTP human tumour cell line panel, 48 h).
Molecule `CC(=O)C(=[N+]=[N-])C(=O)NCC#N` has a TGI greater than 10 µM.
`O=C(c1ccccc1)c1ccc2nc3n(c2c1)C(c1c(F)cccc1F)SC3` (stereo not given) gave a TGI of 15.4 µM.
`C=C(Cl)c1c(OC)cccc1OCc1ccccc1` showed a TGI greater than 100 µM.
`Nc1nc(Cl)c(N)c(NCC2(CO)CCC2)n1` showed a TGI greater than 100 µM.
`c1ccc2c(C3CCN(CCN4CCOCC4)C3)c[nH]c2c1` (stereo not given) was tested, and the TGI was greater than 100 µM.
`COc1ccc(OC)c2sc(N3C(=O)/C(=C/c4ccc(Cl)cc4)N=C3c3ccccc3)nc12` gave a TGI greater than 100 µM.

What follows are molecules tested on MOLT-4 leukemia (assay: DTP human tumour cell line panel, 48 h).
In the case of `CC(=O)C(=[N+]=[N-])C(=O)NCC#N`, the TGI is reported as greater than 10 µM.
In the case of `O=C(c1ccccc1)c1ccc2nc3n(c2c1)C(c1c(F)cccc1F)SC3` (stereo not given), the TGI is reported as 27.6 µM.
`COc1nc(C)nc2sc3c(c12)CCCC3` showed a TGI greater than 100 µM.
With `C=C(Cl)c1c(OC)cccc1OCc1ccccc1` the TGI was greater than 100 µM.
Molecule `Nc1nc(Cl)c(N)c(NCC2(CO)CCC2)n1` has a TGI greater than 100 µM.
With `COc1ccc(OC)c2sc(N3C(=O)/C(=C/c4ccc(Cl)cc4)N=C3c3ccccc3)nc12` the TGI was 66.8 µM.

Each molecule was assayed on NCI-H460 lung (assay: DTP human tumour cell line panel, 48 h).
With `CC(=O)C(=[N+]=[N-])C(=O)NCC#N` the TGI was greater than 10 µM.
In the case of `O=C(c1ccccc1)c1ccc2nc3n(c2c1)C(c1c(F)cccc1F)SC3` (stereo not given), the TGI is reported as 52.2 µM.
Molecule `COc1nc(C)nc2sc3c(c12)CCCC3` has a TGI greater than 100 µM.
`C=C(Cl)c1c(OC)cccc1OCc1ccccc1` gave a TGI greater than 100 µM.
In the case of `Nc1nc(Cl)c(N)c(NCC2(CO)CCC2)n1`, the TGI is reported as greater than 100 µM.
`c1ccc2c(C3CCN(CCN4CCOCC4)C3)c[nH]c2c1` (stereo not given) gave a TGI greater than 100 µM.
With `COc1ccc(OC)c2sc(N3C(=O)/C(=C/c4ccc(Cl)cc4)N=C3c3ccccc3)nc12` the TGI was greater than 100 µM.

The molecules below were run on SK-OV-3 ovarian (assay: DTP human tumour cell line panel, 48 h).
Work on `CC(=O)C(=[N+]=[N-])C(=O)NCC#N` yielded a TGI greater than 10 µM.
Work on `O=C(c1ccccc1)c1ccc2nc3n(c2c1)C(c1c(F)cccc1F)SC3` (stereo not given) yielded a TGI of 26.7 µM.
Molecule `C=C(Cl)c1c(OC)cccc1OCc1ccccc1` has a TGI greater than 100 µM.
`Nc1nc(Cl)c(N)c(NCC2(CO)CCC2)n1` gave a TGI greater than 100 µM.
`c1ccc2c(C3CCN(CCN4CCOCC4)C3)c[nH]c2c1` (stereo not given) gave a TGI greater than 100 µM.
`COc1ccc(OC)c2sc(N3C(=O)/C(=C/c4ccc(Cl)cc4)N=C3c3ccccc3)nc12` gave a TGI greater than 100 µM.

Each molecule was assayed on HOP-92 NSCLC (assay: DTP human tumour cell line panel, 48 h).
With `CC(=O)C(=[N+]=[N-])C(=O)NCC#N` the TGI was greater than 10 µM.
In the case of `O=C(c1ccccc1)c1ccc2nc3n(c2c1)C(c1c(F)cccc1F)SC3` (stereo not given), the TGI is reported as greater than 100 µM.
Molecule `C=C(Cl)c1c(OC)cccc1OCc1ccccc1` has a TGI of 78.9 µM.
`Nc1nc(Cl)c(N)c(NCC2(CO)CCC2)n1` gave a TGI greater than 100 µM.
For `c1ccc2c(C3CCN(CCN4CCOCC4)C3)c[nH]c2c1` (stereo not given), the TGI was greater than 100 µM.
`COc1ccc(OC)c2sc(N3C(=O)/C(=C/c4ccc(Cl)cc4)N=C3c3ccccc3)nc12` was tested, and the TGI was greater than 100 µM.

What follows are molecules tested on CCRF-CEM leukemia (assay: DTP human tumour cell line panel, 48 h).
With `CC(=O)C(=[N+]=[N-])C(=O)NCC#N` the TGI was greater than 10 µM.
`O=C(c1ccccc1)c1ccc2nc3n(c2c1)C(c1c(F)cccc1F)SC3` (stereo not given) gave a TGI of 37.6 µM.
Work on `C=C(Cl)c1c(OC)cccc1OCc1ccccc1` yielded a TGI greater than 100 µM.
`Nc1nc(Cl)c(N)c(NCC2(CO)CCC2)n1` was tested, and the TGI was greater than 100 µM.
For `c1ccc2c(C3CCN(CCN4CCOCC4)C3)c[nH]c2c1` (stereo not given), the TGI was greater than 100 µM.
In the case of `COc1ccc(OC)c2sc(N3C(=O)/C(=C/c4ccc(Cl)cc4)N=C3c3ccccc3)nc12`, the TGI is reported as greater than 100 µM.

The molecules below were run on MCF7 breast (assay: DTP human tumour cell line panel, 48 h).
For `CC(=O)C(=[N+]=[N-])C(=O)NCC#N`, the TGI was greater than 10 µM.
For `O=C(c1ccccc1)c1ccc2nc3n(c2c1)C(c1c(F)cccc1F)SC3` (stereo not given), the TGI was 50.5 µM.
`COc1nc(C)nc2sc3c(c12)CCCC3` showed a TGI greater than 100 µM.
For `C=C(Cl)c1c(OC)cccc1OCc1ccccc1`, the TGI was greater than 100 µM.
